Patent US8741875B2, “Compounds as receptor modulators with therapeutic utility” (Allergan, Inc., priority 2009, dated 2014)

Experiments:
blood lymphocytes = assay: Lymphopenia Assay in Mice (blood lymphocyte depletion); type: in vivo, female C57BL6 mice; details: FIG. 1
Procedure: A lymphopenia assay in mice; as previously described, was employed to measure the in vivo blood lymphocyte depletion after dosing with the test compound: [3-({4-[(5-phenylpentyl)oxy]-3-(2-thienyl)benzyl}amino)propyl]phosphonic acid Compound 6. This S1P1 modulator, [3-({4-[(5-phenylpentyl)oxy]-3-(2-thienyl)benzyl}amino)propyl]phosphonic acid Compound 6 is useful for S1P-related diseases and exemplified by the lymphopenia in vivo response.
Test drugs, were prepared in a solution containing 3% (w/v) 2-hydroxy propyl β-cyclodextrin (HPBCD) and 1% DMSO to a final concentration of 1 mg/ml, and subcutaneously injected to female C57BL6 mice (CHARLES RIVERS) weighing 20-25 g at the dose of 10 mg/Kg. Blood samples were obtained by puncturing the submandibular skin with a Goldenrod animal lancet at different time intervals such as: 24, 48, 72 (and 96 h) post drug application. Blood was collected into microvettes (SARSTEDT) containing EDTA tripotassium salt. Lymphocytes in blood samples were counted using a HEMAVET Multispecies Hematology System, HEMAVET HV950FS (Drew Scientific Inc.). (Hale, J. et al Bioorg. & Med. Chem. Lett. 14 (2004) 3351

human S1P1 receptor = molecular target: T1, human S1P1 receptor (Homo sapiens, UniProt P21453); assay: GTP γ35S binding assay for S1P1 activity; type: biochemical; details: membranes, 30 min at 25° C., read-out: S1P1 EC50 (Activity potency: S1P1 receptor from GTP γ35S)
T1 construct: expressed in transfected cells; membranes used
T1 sequence (P21453 whole entry): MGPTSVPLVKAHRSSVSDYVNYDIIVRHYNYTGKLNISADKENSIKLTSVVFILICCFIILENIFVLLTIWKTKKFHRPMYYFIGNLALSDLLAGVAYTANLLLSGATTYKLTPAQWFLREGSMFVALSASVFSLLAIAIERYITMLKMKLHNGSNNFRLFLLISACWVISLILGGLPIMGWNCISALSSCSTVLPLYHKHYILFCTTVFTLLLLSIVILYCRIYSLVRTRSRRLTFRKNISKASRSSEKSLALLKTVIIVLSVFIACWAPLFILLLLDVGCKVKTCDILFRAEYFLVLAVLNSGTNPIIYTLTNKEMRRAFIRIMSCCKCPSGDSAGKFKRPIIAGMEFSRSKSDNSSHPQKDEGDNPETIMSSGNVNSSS
Procedure: Compounds were tested for S1P1 activity using the GTP γ^35S binding assay. These compounds may be assessed for their ability to activate or block activation of the human S1P1 receptor in cells stably expressing the S1P1 receptor.
GTP γ^35S binding was measured in the medium containing (mM) HEPES 25, pH 7.4, MgCl2 10, NaCl 100, dithitothreitol 0.5, digitonin 0.003%, 0.2 nM GTP γ^35S, and 5 μg membrane protein in a volume of 150 μl. Test compounds were included in the concentration range from 0.08 to 5,000 nM unless indicated otherwise. Membranes were incubated with 100 μM 5′-adenylylimmidodiphosphate for 30 min, and subsequently with 10 μM GDP for 10 min on ice. Drug solutions and membrane were mixed, and then reactions were initiated by adding GTP γ^35S and continued for 30 min at 25° C. Reaction mixtures were filtered over Whatman GF/B filters under vacuum, and washed three times with 3 mL of ice-cold buffer (HEPES 25, pH7.4, MgCl2 10 and NaCl 100). Filters were dried and mixed with scintillant, and counted for ^35S activity using a β-counter. Agonist-induced GTP γ^35S binding was obtained by subtracting that in the absence of agonist. Binding data were analyzed using a non-linear regression method. In case of antagonist assay, the reaction mixture contained 10 nM S1P in the presence of test antagonist at concentrations ranging from 0.08 to 5000 nM.

O=P(O)(O)CCCNCc1ccc(OCCCCCc2ccccc2)c(-c2cccs2)c1 [Compound 6, [3-({4-[(5-phenylpentyl)oxy]-3-(2-thienyl)benzyl}amino)propyl]phosphonic acid]
Lymphopenia (blood lymphocytes; 10 mg/kg in mice (24, 48, 72 Hours)): induced
lymphocyte count (number of lymphocytes) (blood lymphocytes; mice, 10 mg/Kg subcutaneously, after 24 hours): < 1 10^3/μL blood
EC50 (human S1P1 receptor): 1.3 nM

O=P(O)(O)C(F)(F)CCNCc1ccc(OCCCCCc2ccccc2)c(-c2ccc(F)o2)c1 [Compound 41, [1,1-difluoro-3-({3-(5-fluoro-2-furyl)-4-[(5-phenylpentyl)oxy]benzyl}amino)propyl]phosphonic acid]
EC50 (human S1P1 receptor): 53.6 nM

O=P(O)(O)CCCNCc1ccc(OCCCCCc2ccccc2)c(-c2nccs2)c1 [Compound 3, [3-({4-[(5-phenylpentyl)oxy]-3-(1,3-thiazol-2-yl)benzyl}amino)propyl]phosphonic acid]
EC50 (human S1P1 receptor): 2 nM

O=P(O)(O)OCCNCc1ccc(OCCCCCc2ccccc2)c(-c2cccs2)c1 [Compound 9, 2-({4-[(5-phenylpentyl)oxy]-3-(2-thienyl)benzyl}amino)ethyl dihydrogen phosphate]
EC50 (human S1P1 receptor): 1.5 nM

O=S(=O)(O)CCCNCc1ccc(OCCCCCc2ccccc2)c(-c2cccs2)c1 [Compound 10, 3-({4-[(5-phenylpentyl)oxy]-3-(2-thienyl)benzyl}amino)propane-1-sulfonic acid]
EC50 (human S1P1 receptor): 10.1 nM

O=P(O)(O)CCCNCc1ccc(OCCCCCc2ccccc2F)c(-c2ccoc2)c1 [Compound 50, (3-{[4-{[5-(2-fluorophenyl)pentyl]oxy}-3-(3-furyl)benzyl]amino}propyl)phosphonic acid]
EC50 (human S1P1 receptor): < 25 nM

COc1ccc(CCCCCOc2ccc(CNCCCP(=O)(O)O)cc2-c2ccco2)cc1 [Compound 33, (3-{[3-(2-furyl)-4-{[5-(4-methoxyphenyl)pentyl]oxy}benzyl]amino}propyl)phosphonic acid]
EC50 (human S1P1 receptor): 7.1 nM

CC(C)Cc1ccc(CCCOc2ccc(CNCCCP(=O)(O)O)cc2-c2cccs2)cc1 [Compound 7, [3-({4-[3-(4-isobutylphenyl)propoxy]-3-(2-thienyl)benzyl}amino)propyl]phosphonic acid]
EC50 (human S1P1 receptor): 14.9 nM

COc1ccc(CCCCCOc2ccc(CNCCCP(=O)(O)O)cc2-c2ccco2)cc1Cl [Compound 31, (3-{[4-{[5-(3-chloro-4-methoxyphenyl)pentyl]oxy}-3-(2-furyl)benzyl]amino}propyl)phosphonic acid]
EC50 (human S1P1 receptor): 8.4 nM

O=P(O)(O)CCCNCc1ccc(OCCCCCc2ccc(Cl)cc2)c(-c2cccs2)c1 [Compound 30, (3-{[4-{[5-(4-chlorophenyl)pentyl]oxy}-3-(2-thienyl)benzyl]amino}propyl)phosphonic acid]
EC50 (human S1P1 receptor): 8 nM

O=P(O)(O)CCCNCc1ccc(OCCCCCc2cccc(Cl)c2)c(-c2ccco2)c1 [Compound 39, (3-{[4-{[5-(3-chlorophenyl)pentyl]oxy}-3-(2-furyl)benzyl]amino}propyl)phosphonic acid]
EC50 (human S1P1 receptor): 32.8 nM

O=P(O)(O)CCCNCc1ccc(NCCCCCc2ccccc2)c(-c2ccco2)c1 [Compound 46, [3-({3-(2-furyl)-4-[(5-phenylpentyl)amino]benzyl}amino)propyl]phosphonic acid]
EC50 (human S1P1 receptor): 1.5 nM

CP(=O)(O)CCCNCc1ccc(OCCCCCc2ccccc2)c(-c2cccs2)c1 [Compound 11, methyl[3-({4-[(5-phenylpentyl)oxy]-3-(2-thienyl)benzyl}amino)propyl]phosphinic acid]
EC50 (human S1P1 receptor): 23 nM
